Measurements from patent US20220408731A1, “MODIFIED ANTIMICROBIAL PEPTIDES” (priority 2021, published 2022).
≈ marks a conversion by molar mass, not a printed value. Read-outs that look alike come from different tables or passages of the source. Square brackets hold non-standard residues; d marks the D form. Peptide text beside a SMILES is read from it. Dab = NCC[C@H](N)C(=O)O

What was measured:
C. albicans = test: Peptide or protein/Fluconazole combination, MIC and FICI; details: Candida albicans
C. glabrata = test: as above; details: Nakaseomyces glabratus
F. oxysporum = test: Antifungal MIC assay in SFM; format: cell-based
P. capsici = test: Antifungal MIC assay in SFM; format: cell-based
C. parapsilosis = test: Antifungal MIC, CLSI M27/M38, half-strength potato dextrose broth; format: cell-based, Candida parapsilosis; details: C. parapsilosis ATCC 22019; 24-72 hours
Method: (§1) Testing for antifungal activity used half-strength potato dextrose broth for peptides and RPMI for comparator antifungals fluconazole and voriconazole. CLSI M27 and M38 methodologies used for to measure MICs. Minimal Inhibitory Concentration (MIC) is the concentration of the compound, protein, or peptide at which there is no significant growth of the microorganism relative to the growth of the microorganism in growth medium lacking the compound, protein, or peptide.
(§2) […] The concentration range for peptides in potato dextrose broth was 0.06-2 mcg/ml, the concentration range for fluconazole was 0.125-64 mcg/ml, and the concentration range for voriconazole was 0.03-16 mcg/ml. MICs were determined at 24-72 hours.

Coccidioides sp. = format: cell-based
Candida auris = test: Antifungal MIC, CLSI M27/M38, half-strength potato dextrose broth; format: cell-based
Method: as §1, §2

Candida albicans = test: as above; format: cell-based
Method: as §1, §2

Fusarium (F. oxysporum) = test: as above; format: cell-based
Method: as §1, §2

P. variotii = test: as above; format: cell-based; details: P. variotii MYA-363; 24-72 hours
Method: as §1, §2

Aspergillus fumigatus = test: as above; format: cell-based
Method: as §1, §2

Fusarium (F. solani) = test: as above; format: cell-based; details: Fusarium F4 (F. solani)
Method: as §1, §2

C. krusei = test: as above; format: cell-based; details: C. krusei ATCC 6258; 24-72 hours
Method: as §1, §2

OC(Cn1cncn1)(Cn1cncn1)c1ccc(F)cc1F [Fluconazole]
MIC (C. albicans; read-out: MIC alone (μM)): 206 µM | MIC (C. albicans; read-out: MIC alone μg/ml): 64 µg/mL | MIC (C. glabrata; read-out: MIC alone (μM)): 206 µM | MIC (C. glabrata; read-out: MIC alone μg/ml): 64 µg/mL

C[C@@H](O)[C@H](NC(=O)[C@H](CS)NC(=O)[C@H](Cc1ccccc1)NC(=O)[C@H](CS)NC(=O)[C@H](CCCNC(=N)N)NC(=O)[C@H](CCCNC(=N)N)NC(=O)[C@H](CCCNC(=N)N)NC(=O)[C@H](Cc1ccccc1)NC(=O)CNC(=O)[C@H](CCCNC(=N)N)NC(=O)[C@H](CS)NC(=O)[C@H](CCCNC(=N)N)NC(=O)CNC(=O)CN)C(=O)N[C@H](C(=O)N[C@@H](Cc1c[nH]cn1)C(=O)N[C@@H](CS)C(N)=O)[C@@H](C)O [GMA4C_AC, reference compound] (H-GGRCRGFRRRCFCTTHC-NH2; N-terminus assumed)
F. oxysporum MIC (F. oxysporum): 6 µM | F. graminearum MIC (Fusarium graminearum): 3 µM | MIC (μM) Fusarium graminearum (Fusarium graminearum): 3 µM (≈ 6.05 µg/mL) | MIC Values (μM) against F. graminearum (Fusarium graminearum): 6 µM (≈ 12.1 µg/mL) | P. capsici MIC (P. capsici): 1.5 µM | Antifungal activity in presence of 100 mM NaCl or 100 mM KCl (Botrytis cinerea): retain their antifungal activity | B. cinerea MIC (Botrytis cinerea): 1.5 to 3.0 µM | MIC (μM) Botrytis cinerea (Botrytis cinerea): 3 µM (≈ 6.05 µg/mL) | MIC Values (μM) against B. cinerea (Botrytis cinerea): 3 µM (≈ 6.05 µg/mL) | SFM + 2 mM CaCl2 MIC (Botrytis cinerea): >6 µM | SFM + 100 mM KCl MIC (Botrytis cinerea): 6 µM | SFM + 100 mM NaCl MIC (Botrytis cinerea): 3 µM | SFM MIC (Botrytis cinerea): 3 µM

CC[C@H](C)[C@H](NC(=O)[C@H](CCCNC(=N)N)NC(=O)[C@@H](NC(=O)[C@H](CS)NC(=O)[C@H](Cc1ccccc1)NC(=O)[C@H](CS)NC(=O)[C@H](CCCNC(=N)N)NC(=O)[C@H](CCCNC(=N)N)NC(=O)[C@H](CCCNC(=N)N)NC(=O)[C@H](Cc1ccccc1)NC(=O)CNC(=O)[C@H](CCCNC(=N)N)NC(=O)[C@H](CS)NC(=O)[C@H](CCCNC(=N)N)NC(=O)CNC(=O)CN)[C@@H](C)O)C(=O)N[C@@H](CS)C(N)=O [GMA4C_V2A] (H-GGRCRGFRRRCFCTRIC-NH2; N-terminus assumed)
MIC 100% (C. parapsilosis): 8 mg/L (≈ 3.91 µM) | MIC 100% (Coccidioides sp.; Coccidioides sp. Cocci1): 8 mg/L (≈ 3.91 µM) | MIC 100% (Coccidioides sp.; Coccidioides sp. Cocci2): 16 mg/L (≈ 7.82 µM) | MIC 100% (Coccidioides sp.; Coccidioides sp. DI17-143): 16 mg/L (≈ 7.82 µM) | MIC 100% (Candida auris; Candida auris DI17-46): 16 mg/L (≈ 7.82 µM) | MIC 100% (Candida auris; Candida auris DI17-47): 16 mg/L (≈ 7.82 µM) | MIC 100% (Candida auris; Candida auris DI17-48): 16 mg/L (≈ 7.82 µM) | MIC 100% (Candida albicans; Candida albicans ATCC 90028): 16 mg/L (≈ 7.82 µM) | MIC 100% (Candida albicans; Candida albicans CA3): 16 mg/L (≈ 7.82 µM) | MIC 100% (Candida albicans; Candida albicans SC5314): 16 mg/L (≈ 7.82 µM) | MIC 100% (Fusarium (F. oxysporum); Fusarium F1 (F. oxysporum)): 8 mg/L (≈ 3.91 µM) | MIC 100% (Fusarium (F. oxysporum); Fusarium F2 (F. oxysporum)): 16 mg/L (≈ 7.82 µM) | MIC 100% (P. variotii): 8 mg/L (≈ 3.91 µM) | MIC 100% (Aspergillus fumigatus; Aspergillus fumigatus AF293): 32 mg/L (≈ 15.6 µM) | MIC 100% (Aspergillus fumigatus; Aspergillus fumigatus DI15-106): >32 mg/L | MIC 100% (Aspergillus fumigatus; Aspergillus fumigatus DI15-116): >32 mg/L | MIC 100% (Fusarium (F. solani)): 8 mg/L (≈ 3.91 µM) | MIC 100% (C. krusei): 16 mg/L (≈ 7.82 µM) | B. cinerea MIC (Botrytis cinerea): 3 µM | MIC (μM) Botrytis cinerea (Botrytis cinerea): 6 µM (≈ 12.3 µg/mL) | MIC Values (μM) against B. cinerea (Botrytis cinerea): 3 µM (≈ 6.14 µg/mL) | SFM + 2 mM CaCl2 MIC (Botrytis cinerea): >6 µM | SFM + 100 mM KCl MIC (Botrytis cinerea): 6 µM | SFM + 100 mM NaCl MIC (Botrytis cinerea): 3 µM | SFM MIC (Botrytis cinerea): 6 µM

N=C(N)NCCC[C@H](NC(=O)CNC(=O)[C@@H](N)Cc1ccccc1)C(=O)N[C@@H](CS)C(=O)N[C@@H](CCCNC(=N)N)C(=O)NCC(=O)N[C@@H](Cc1ccccc1)C(=O)N[C@@H](CCCNC(=N)N)C(=O)N[C@@H](CCCNC(=N)N)C(=O)N[C@@H](CCCNC(=N)N)C(=O)N[C@@H](CS)C(=O)N[C@@H](Cc1ccccc1)C(=O)N[C@@H](CS)C(=O)N[C@@H](Cc1c[nH]c2ccccc12)C(=O)N[C@@H](CCCNC(=N)N)C(=O)N[C@@H](Cc1c[nH]c2ccccc12)C(=O)N[C@@H](CS)C(N)=O [GMA4C_V4A] (H-FGRCRGFRRRCFCWRWC-NH2; N-terminus assumed)
MIC 100% (C. parapsilosis): 8 mg/L (≈ 3.49 µM) | MIC 100% (Coccidioides sp.; Coccidioides sp. Cocci1): 4 mg/L (≈ 1.74 µM) | MIC 100% (Coccidioides sp.; Coccidioides sp. Cocci2): 16 mg/L (≈ 6.97 µM) | MIC 100% (Coccidioides sp.; Coccidioides sp. DI17-143): 16 mg/L (≈ 6.97 µM) | MIC 100% (Candida auris; Candida auris DI17-46): 8 mg/L (≈ 3.49 µM) | MIC 100% (Candida auris; Candida auris DI17-47): 8 mg/L (≈ 3.49 µM) | MIC 100% (Candida auris; Candida auris DI17-48): 8 mg/L (≈ 3.49 µM) | MIC 100% (Candida albicans; Candida albicans ATCC 90028): 8 mg/L (≈ 3.49 µM) | MIC 100% (Candida albicans; Candida albicans CA3): 8 mg/L (≈ 3.49 µM) | MIC 100% (Candida albicans; Candida albicans SC5314): 8 mg/L (≈ 3.49 µM) | MIC 100% (Fusarium (F. oxysporum); Fusarium F1 (F. oxysporum)): 8 mg/L (≈ 3.49 µM) | MIC 100% (Fusarium (F. oxysporum); Fusarium F2 (F. oxysporum)): 8 mg/L (≈ 3.49 µM) | MIC 100% (P. variotii): 8 mg/L (≈ 3.49 µM) | MIC 100% (Aspergillus fumigatus; Aspergillus fumigatus AF293): 16 mg/L (≈ 6.97 µM) | MIC 100% (Aspergillus fumigatus; Aspergillus fumigatus DI15-106): 16 mg/L (≈ 6.97 µM) | MIC 100% (Aspergillus fumigatus; Aspergillus fumigatus DI15-116): 32 mg/L (≈ 13.9 µM) | MIC 100% (Fusarium (F. solani)): 8 mg/L (≈ 3.49 µM) | MIC 100% (C. krusei): 8 mg/L (≈ 3.49 µM) | Fungal growth inhibition in presence of 2 mM CaCl2 (Botrytis cinerea): inhibit fungal growth | MIC (μM) Botrytis cinerea (Botrytis cinerea): 1.5 µM (≈ 3.44 µg/mL) | MIC Values (μM) against B. cinerea (Botrytis cinerea): 1.5 µM (≈ 3.44 µg/mL) | Potency relative to GMA4C_AC in presence of cations (Botrytis cinerea): 2 fold | SFM + 2 mM CaCl2 MIC (Botrytis cinerea): 3 to 6 µM | SFM + 100 mM KCl MIC (Botrytis cinerea): 1.5 µM | SFM + 100 mM NaCl MIC (Botrytis cinerea): 1.5 µM | SFM MIC (Botrytis cinerea): 1.5 to 3 µM

NCC[C@H](NC(=O)CNC(=O)[C@@H](N)Cc1ccccc1)C(=O)N[C@@H](CS)C(=O)N[C@@H](CCN)C(=O)NCC(=O)N[C@@H](Cc1ccccc1)C(=O)N[C@@H](CCN)C(=O)N[C@@H](CCN)C(=O)N[C@@H](CCN)C(=O)N[C@@H](CS)C(=O)N[C@@H](Cc1ccccc1)C(=O)N[C@@H](CS)C(=O)N[C@@H](Cc1c[nH]c2ccccc12)C(=O)N[C@@H](CCN)C(=O)N[C@@H](Cc1c[nH]c2ccccc12)C(=O)N[C@@H](CS)C(N)=O [GMA4C_V5A, FG(Dab)C(Dab)GF(Dab)(Dab)(Dab)CFCW(Dab)WC-NH2] (H-FG[Dab]C[Dab]GF[Dab][Dab][Dab]CFCW[Dab]WC-NH2; N-terminus assumed)
MIC 100% (C. parapsilosis): 8 mg/L (≈ 4.08 µM) | MIC 100% (Coccidioides sp.; Coccidioides sp. Cocci1): 2 mg/L (≈ 1.02 µM) | MIC 100% (Coccidioides sp.; Coccidioides sp. Cocci2): 16 mg/L (≈ 8.17 µM) | MIC 100% (Coccidioides sp.; Coccidioides sp. DI17-143): 16 mg/L (≈ 8.17 µM) | MIC 100% (Candida auris; Candida auris DI17-46): 16 mg/L (≈ 8.17 µM) | MIC 100% (Candida auris; Candida auris DI17-47): 16 mg/L (≈ 8.17 µM) | MIC 100% (Candida auris; Candida auris DI17-48): 16 mg/L (≈ 8.17 µM) | MIC 100% (Candida albicans; Candida albicans ATCC 90028): 16 mg/L (≈ 8.17 µM) | MIC 100% (Candida albicans; Candida albicans CA3): 8 mg/L (≈ 4.08 µM) | MIC 100% (Candida albicans; Candida albicans SC5314): 16 mg/L (≈ 8.17 µM) | MIC 100% (Fusarium (F. oxysporum); Fusarium F1 (F. oxysporum)): 8 mg/L (≈ 4.08 µM) | MIC 100% (Fusarium (F. oxysporum); Fusarium F2 (F. oxysporum)): 16 mg/L (≈ 8.17 µM) | MIC 100% (P. variotii): 4 mg/L (≈ 2.04 µM) | MIC 100% (Aspergillus fumigatus; Aspergillus fumigatus AF293): 32 mg/L (≈ 16.3 µM) | MIC 100% (Aspergillus fumigatus; Aspergillus fumigatus DI15-106): >32 mg/L | MIC 100% (Aspergillus fumigatus; Aspergillus fumigatus DI15-116): >32 mg/L | MIC 100% (Fusarium (F. solani)): 8 mg/L (≈ 4.08 µM) | MIC 100% (C. krusei): 8 mg/L (≈ 4.08 µM) | MIC (μM) Botrytis cinerea (Botrytis cinerea): 6 µM (≈ 11.8 µg/mL) | MIC Values (μM) against B. cinerea (Botrytis cinerea): 3 µM (≈ 5.88 µg/mL) | SFM + 2 mM CaCl2 MIC (Botrytis cinerea): >6 µM | SFM + 100 mM KCl MIC (Botrytis cinerea): >6 µM | SFM + 100 mM NaCl MIC (Botrytis cinerea): 6 µM | SFM MIC (Botrytis cinerea): 6 µM
